pIC50: −log10 of the molar value. Activity calls are given as the source filed them. The rule behind the calls is not given here.
How the values were obtained:
[1] = target: Dipeptidyl peptidase 4 (Sus scrofa) (UniProt P22411); assay: Inhibition of pig DPP4 at 500 uM
[2] = target: T1, Dipeptidyl peptidase 4 (Homo sapiens, UniProt P27487); assay: Inhibition of DPP4 at 10 mM
Target sequence in this assay (P27487 whole entry, looked up): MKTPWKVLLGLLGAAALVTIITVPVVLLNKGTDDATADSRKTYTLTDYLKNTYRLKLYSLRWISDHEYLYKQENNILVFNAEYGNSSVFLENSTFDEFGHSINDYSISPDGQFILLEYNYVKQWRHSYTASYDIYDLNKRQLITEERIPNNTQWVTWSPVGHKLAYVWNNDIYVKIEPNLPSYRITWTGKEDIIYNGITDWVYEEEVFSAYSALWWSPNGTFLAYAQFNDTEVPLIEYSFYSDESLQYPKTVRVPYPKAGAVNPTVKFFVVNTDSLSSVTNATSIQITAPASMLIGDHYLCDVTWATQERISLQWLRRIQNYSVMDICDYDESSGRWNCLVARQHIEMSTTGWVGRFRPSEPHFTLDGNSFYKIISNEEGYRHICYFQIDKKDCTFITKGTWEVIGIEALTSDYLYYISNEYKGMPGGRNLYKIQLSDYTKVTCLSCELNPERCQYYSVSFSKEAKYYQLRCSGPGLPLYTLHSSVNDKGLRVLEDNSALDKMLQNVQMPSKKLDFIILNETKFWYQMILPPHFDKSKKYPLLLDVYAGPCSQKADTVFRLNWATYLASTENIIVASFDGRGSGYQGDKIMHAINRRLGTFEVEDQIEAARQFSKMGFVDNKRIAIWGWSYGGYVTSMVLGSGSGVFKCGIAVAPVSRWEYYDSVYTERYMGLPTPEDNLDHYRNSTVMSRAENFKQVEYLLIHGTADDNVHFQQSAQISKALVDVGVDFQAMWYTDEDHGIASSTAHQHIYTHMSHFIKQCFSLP

[3] = target: T1, Dipeptidyl peptidase 4; assay: Inhibition of DPP4 at 30 mM
Target sequence in this assay (P27487 whole entry, looked up): as above

[4] = target: T1, Dipeptidyl peptidase 4; assay: Inhibition of DPP4 upto 3.3 mM
Target sequence in this assay (P27487 whole entry, looked up): as above

[5] = target: T1, Dipeptidyl peptidase 4; assay: Inhibition of DPP4
Target sequence in this assay (P27487 whole entry): as the sequence (P27487 whole entry, looked up) above

[6] = target: Dipeptidyl peptidase 4 (Sus scrofa, UniProt P22411); assay: Inhibition of pig DPP4
Dipeptidyl peptidase 4 (Sus scrofa, UniProt P22411), sequence (P22411 whole entry): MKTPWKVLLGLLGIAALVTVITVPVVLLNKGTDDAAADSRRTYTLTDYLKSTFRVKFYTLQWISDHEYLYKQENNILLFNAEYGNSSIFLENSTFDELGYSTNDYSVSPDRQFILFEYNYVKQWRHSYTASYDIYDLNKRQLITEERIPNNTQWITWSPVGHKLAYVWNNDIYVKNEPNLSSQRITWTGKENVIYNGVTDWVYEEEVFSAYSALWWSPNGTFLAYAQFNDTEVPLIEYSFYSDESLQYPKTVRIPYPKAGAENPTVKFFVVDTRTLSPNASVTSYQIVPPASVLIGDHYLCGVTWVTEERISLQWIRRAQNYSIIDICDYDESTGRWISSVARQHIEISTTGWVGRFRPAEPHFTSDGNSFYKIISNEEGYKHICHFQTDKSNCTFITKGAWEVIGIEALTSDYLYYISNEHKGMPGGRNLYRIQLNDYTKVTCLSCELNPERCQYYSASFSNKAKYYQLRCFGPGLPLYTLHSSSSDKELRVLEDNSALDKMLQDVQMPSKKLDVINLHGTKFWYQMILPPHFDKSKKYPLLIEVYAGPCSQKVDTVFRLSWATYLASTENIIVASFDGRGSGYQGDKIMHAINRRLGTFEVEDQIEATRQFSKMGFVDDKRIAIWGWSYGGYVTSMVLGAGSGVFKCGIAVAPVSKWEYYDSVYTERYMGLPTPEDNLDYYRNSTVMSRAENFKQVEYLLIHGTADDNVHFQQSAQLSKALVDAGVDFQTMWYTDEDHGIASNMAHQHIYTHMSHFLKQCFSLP

Dipeptidyl peptidase 4 (Sus scrofa), sequence (P22411 whole entry, looked up): as the sequence (P22411 whole entry) above

Work on `CC(C)n1c(/C=C/[C@@H](O)C[C@@H](O)CC(=O)O)c(-c2ccc(F)cc2)c2ccccc21` yielded an inhibition [1] of 8%.
Compound `CC(C)c1nc(N(C)S(C)(=O)=O)nc(-c2ccc(F)cc2)c1/C=C/[C@@H](O)C[C@@H](O)CC(=O)O` has an inhibition [1] of 4%.
With `CN(C)C(=N)NC(=N)N` the inhibition [2] was 12.7%, the inhibition [3] was 21.9% and the Activity [4] was “inactive”.
Work on `CN(C)C(=N)N=C(N)N` [METFORMIN] yielded a pIC50 [5] of 4.54.
In the case of `CC(C)c1c(C(=O)Nc2ccccc2)c(-c2ccccc2)c(-c2ccc(F)cc2)n1CC[C@@H](O)C[C@@H](O)CC(=O)O` [ATORVASTATIN], the inhibition [1] was 66% and the pIC50 [6] was 3.76.
